# Tests used:
# [1] = test system: non-AT1/non-AT2 angiotensin II recognition site; experiment: [125I]angiotensin II receptor autoradiography on myometrium/fibroid sections; assay type: binding, human; conditions: for displacement of [125I]angiotensin II from non-AT1/non-AT2 angiotensin II recognition site: FIG. 2, unlabeled ligand 0.1 nM, human non-pregnant myometrium and fibroid sections
# Procedure: Frozen myometrium and fibroid tissues were surrounded in embedding medium (OCT compound, Miles Scientific) before 20 μm sections were cut using a cryostat (-15 to -1 9° C.) and thaw mounted onto gelatin-coated glass slides for receptor autoradiographic studies. Sections were stored (less than 2 week) desiccated at -80° C. until used.
# Slide mounted human myometrial/fibroid sections were removed from storage and allowed approximately 30 min to equilibrate to room temperature. To reduce endogenous levels of angiotensin II in the tissue, the sections were preincubated for 60 min in incubation buffer (mM; sodium chloride, 150; sodium dihydrogen phosphate, 50; magnesium chloride, 10; ethyleneglycol-bis-(β-amino-ethyl ether)-N,N'-tetra-acetic acid, 5 and 0.4% w/v bovine serum albumin, pH 7.4) at 25° C. […] Immediately following incubation, the tissue sections were washed in ice-cold incubation buffer for 2 min and dipped (1 s) in ice-cold distilled water to remove buffer salts. The sections were rapidly dried in a stream of cold dry air and exposed to Hyperfilm-[^3 H]
# [2] = test system: myometrial cells; experiment: Myometrial cell proliferation, cell counts in Coulter counter; assay type: cell-based, human; conditions: for cell count, 0 day (+/-SD) / cell count, 4 days (+/-SD) / cell count, 6 days (+/-SD): Table 1, in 1% FCS
# Procedure: Tissue samples were placed into sterile calcium and magnesium-free HBSS containing penicillin (100 U/ml) and streptomycin (100 μg/ml) for transfer to the laboratory. Myometrial cells were isolated by collagenase digestion. Briefly, myometrium was finely chopped and incubated in HBSS containing 1 mg/ml collagenase IA, 20 mM Hepes, […], 100 μg/ml streptomycin and 5 μg/ml fungizone at 37° C. until the cells were dispersed. Myometrial cells were obtained by centrifugation for 15 minutes at 400 g over 60% Percoll and the cells washed with HBSS. Myometrial cells were characterised by their ability to respond to oxytocin and staining for actin.
# Cells were maintained in 175 cm^2 flasks in Dulbecco's modified Eagle's medium (DMEM) containing 10% (v/v) fetal calf serum (FCS), 1% L-glutamine,20 mM Hepes and 1% antibiotic-antimycotic mixture (10,000 U penicillin, […], and 25 μg ml^-1 fungizone) at 37° C. in a humidified atmosphere of air/CO2 (19:1) until 95% confluent. Thereafter, the cells were trypsinised, washed and re-plated at a density of 10×10^3 cells per well in 24-well plates in 1 ml of DMEM with 10% FCS for the proliferation studies. After 24 hrs, the medium was removed and replaced with serum-free DMEM. After a further 24 hrs, the experiments were initiated on quiescent monolayers of myometrial cells. To the serum-starved myometrial cells was added either angiotensin II (0.1 μm or 1.0 μm) in the presence or absence of 1% FCS or bFGF (20 ng/ml) or FCS (1%) alone or DuP753 with or without angiotensin II (0.1 μM) and cell growth measured at day 4 and day 6 by counting cell numbers in a Coulter counter as described below. The corresponding medium was replaced every 24 hrs with fresh medium.
# Calibration of the Coulter counter was achieved by counting the myometrium cell suspension at reduced aperture size ranging from 0 to 32. A calibration curve was constructed from the cell counts on the function of the aperture size, and the aperture size corresponding to the middle point of the plateau part of the calibration curve was used for the cell counting. The aperture size used for myometrium cell counting was 16.
# At defined time-points, the growth media was removed and the cells were washed with 1 ml of isotonic saline (0.9% sodium chloride), followed by the addition of 1 ml of 10 mM HEPES buffer containing 1.5 mM magnesium chloride, and 2 drops of Zap-oglobin (Coulter Electronics Ltd., Luton, Beds., UK) containing 2.5% acetic acid to each well. The 24-well plate was allowed to incubate at 37° C. for 10 min. After which, the suspended cells were pipetted up and down to disperse the cell clusters. The cell suspension was then added to 9 ml of counting solution containing 0.9% sodium chloride and 0.5% formalin in a Coulter counter container. Each well was washed three times with the counting solution from the same container and effluent collected in the same container. The number of cells in each well was counted at the aperture size of 16 on the Coulter counter (Coulter Electronics Ltd., Luton, Beds U.K.). Three readings were taken for each well and a mean value of the three readings obtained. The mean (±SD) value of cell counts from the triplicate wells was calculated.
# As discussed above, FIG. 3(A) illutrates the effect of angiotensin II on myometrial cell proliferation. Myometrium cells were maintained in Dulbecco's modified Eagle's medium (MD) with 10% (v/v) FCS, containing 1% L-glutamine, 20 mM HEPES and 1% antibiotic-antimycotic mixture (10,000 U penicillin, 10 mg streptomycin) at 37° C. in a humidified atmosphere of air/CO2 (19:1) until 95% confluent. For the proliferation studies, the cells were plated at a density of 10×10^3 cells per well in 24 well plates in 1 ml of DMEM with 10% FCS. After 24 hrs the medium was removed and replaced with serum-free DMEM. After a further 24 hrs, the experiment was initiated on quiescent monolayers of myometrial cells. […]
# [3] = test system: angiotensin II-induced myometrial cell proliferation; experiment: Inhibition of angiotensin II-induced myometrial cell proliferation, Coulter counter; assay type: cell-based, human; conditions: for inhibition of angiotensin II-mediated cell proliferation: FIG. 5, 1.00 μM
# Procedure: Tissue samples were placed into sterile calcium and magnesium-free HBSS containing penicillin (100 U/ml) and streptomycin (100 μg/ml) for transfer to the laboratory. Myometrial cells were isolated by collagenase digestion. Briefly, myometrium was finely chopped and incubated in HBSS containing 1 mg/ml collagenase IA, 20 mM Hepes, 100 U/L penicillin, 100 μg/ml streptomycin and 5 μg/ml fungizone at 37° C. until the cells were dispersed. Myometrial cells were obtained by centrifugation for 15 minutes at 400 g over 60% Percoll and the cells washed with HBSS. Myometrial cells were characterised by their ability to respond to oxytocin and staining for actin.
# Cells were maintained in 175 cm^2 flasks in Dulbecco's modified Eagle's medium (DMEM) containing 10% (v/v) fetal calf serum (FCS), 1% L-glutamine,20 mM Hepes and 1% antibiotic-antimycotic mixture (10,000 U penicillin, 10 μg streptomycin, and 25 μg ml^-1 fungizone) at 37° C. in a humidified atmosphere of air/CO2 (19:1) until 95% confluent. Thereafter, the cells were trypsinised, washed and re-plated at a density of 10×10^3 cells per well in 24-well plates in 1 ml of DMEM with 10% FCS for the proliferation studies. After 24 hrs, the medium was removed and replaced with serum-free DMEM. After a further 24 hrs, the experiments were initiated on quiescent monolayers of myometrial cells. […] The corresponding medium was replaced every 24 hrs with fresh medium.
# At defined time-points, the growth media was removed and the cells were washed with 1 ml of isotonic saline (0.9% sodium chloride), followed by the addition of 1 ml of 10 mM HEPES buffer containing 1.5 mM magnesium chloride, and 2 drops of Zap-oglobin (Coulter Electronics Ltd., Luton, Beds., UK) containing 2.5% acetic acid to each well. The 24-well plate was allowed to incubate at 37° C. for 10 min. After which, the suspended cells were pipetted up and down to disperse the cell clusters. The cell suspension was then added to 9 ml of counting solution containing 0.9% sodium chloride and 0.5% formalin in a Coulter counter container. […] The number of cells in each well was counted at the aperture size of 16 on the Coulter counter (Coulter Electronics Ltd., Luton, Beds U.K.). Three readings were taken for each well and a mean value of the three readings obtained. The mean (±SD) value of cell counts from the triplicate wells was calculated.
# Myometrium cells were maintained in Dulbecco's modified Eagle's medium (MD) with 10% (v/v) FCS, containing 1% L-glutamine, 20 mM HEPES and 1% antibiotic-antimycotic mixture (10,000 U penicillin, 10 mg streptomycin) at 37° C. in a humidified atmosphere of air/CO2 (19:1) until 95% confluent. […] The cell growth was measured at day 4 and day 6 by counting cell numbers in a Coulter Counter. […]
# [4] = test system: myometrial cells; experiment: [3H]-thymidine incorporation into DNA (DNA synthesis); assay type: cell-based, human; conditions: FIG. 4; Captopril 0.1 and 1.0 mM; 48 h; serum-free medium
# Procedure: Myometrial cells prepared as described previously were resuspended in culture medium containing DMEM supplemented with 10% (v/v) FCS, 10 mM L-glutamine, 20 mM hepes, 100 U/mi penicillin and 100/μg/ml streptomycin in 24 well plates at a density of approximately 250×10^3 cells per well and maintained at 37° C. in a humidified atmosphere of air/CO2 (19:1).
# DNA synthesis was assayed by measuring [^3 H]-thymidine incorporation into DNA. Subconfluent myometrial cells were made quiescent by incubation with serum-free medium for 48 h, the medium being replaced with serum-free medium containing 0.2% (w/v) bovine serum albumin (BSA) and [^3 H]-thymidine (0.2 μCi/well). The cells were further incubated for 48 h in the presence of angiotensin-converting enzyme (ACE) inhibitor (0.1 and 1.0 mM Captopril, hatched and solid columns respectively) or angiotensin II (100 nM AgII, crossed column). The medium was then removed and the cells incubated with 10% cold trichloroacetic acid TCA) at 4° C. for 15 min. TCA-precipitated material was redissolved in 0.2 M NaOH and the radioactivity determined by liquid scintillation counting in a β-scintillation analyser. Positive and negative controls for proliferation were established by incubating cells with 10% fetal calf serum (square column) and by growth in the absence of the agonist in serum-free medium (open column).
molecule,measurement,setting,value
Sar-Thr-angiotensin II,displacement of [125I]angiotensin II from non-AT1/non-AT2 angiotensin II recognition site,[1],can selectively displace
"bFGF: Basic fibroblast growth factor, classic growth factor, from RD Systems","cell count, 0 day (+/-SD)",[2],63.90 +/- 1.88
same,"cell count, 4 days (+/-SD)",[2],167.33 +/- 25.11
same,"cell count, 6 days (+/-SD)",[2],307.33 +/- 49.69
Cc1cc(Cn2cnc3c2CC(C(=O)O)N(C(=O)C(c2ccccc2)c2ccccc2)C3)ccc1N (stereo not drawn) [PD123177],inhibition of angiotensin II-mediated cell proliferation,[3],significantly inhibited
same,inhibition of angiotensin II-mediated cell growth,[3]; preliminary data,inhibits
Sar-Ala-angiotensin II,displacement of [125I]angiotensin II from non-AT1/non-AT2 angiotensin II recognition site,[1],can selectively displace
C[C@H](CS)C(=O)N1CCC[C@H]1C(=O)O [Captopril],"reduction of DNA synthesis, of control (0% FCS)",[4],~50%
CCCCc1nc(Cl)c(CO)n1Cc1ccc(-c2ccccc2-c2nn[nH]n2)cc1 [DuP753],inhibition of the effects of angiotensin II on cell proliferation,"[3]; FIG. 3(B), DuP753 1 μM, angiotensin II 0.1 μM, 1% FCS",inhibits
same,inhibition of angiotensin II-mediated cell proliferation,[3],significantly inhibited
"angiotensin II (DRVYIHPF; Angiotensin-2; UniProt P01019 25-32, looked up)",increase in myometrial cell proliferation compared to cells in culture medium devoid of angiotensin II,"[2]; FIG. 3(A), 0.1 μM, after six days in culture",~100%
same,"cell count, 0 day (+/-SD)",[2],64.33 +/- 2.73
same,"cell count, 4 days (+/-SD)",[2],167.33 +/- 21.55
same,"cell count, 6 days (+/-SD)",[2],333.67 +/- 7.51
same,intensity of non-AT1/non-AT2 angiotensin II recognition site labelling in fibroid tissue,"[1]; FIG. 1, cold angiotensin II (1 μM)",only disappears
